Tests used:
[1] = Thermal melting profiles (Tm) of β-gal siRNA duplexes; assay type: physicochemical; conditions: for Avg. Tm from 1st Exp. / Tm: 1st experiment; for Avg. Tm from 2nd Exp.: 2nd (duplicate) experiment; for melts at a temperature of: text summary of Table 7; for melting temperature higher than the wild type (duplex I): versus duplex I
From the text: The purpose of this experiment was to determine the effect of incorporating ribothymidines in a double stranded RNA molecule in place of uridines on the melting temperature (TM) of the siRNA molecule. A higher Tm correlates with increased siRNA duplex stability.
To determine the effect of replacing uridines with ribothymidines in the siRNA duplex upon melting temperature, thermal melting profiles were generated for four β-galactosidase (β-gal) siRNA molecules (table 5). These four β-gal siRNA duplexes differ only by the presence or absence of ribothymidines in the siRNA duplex. Where rT is 5-methyluridine.
The stock solutions of single stranded oligonucleotides were prepared by dissolving the selected sequences in 400 μL 10 mM buffer phosphate pH 7.0 containing 0.1 M NaCl and 0.1 mM EDTA and diluted (1 μL to 200 μL) with water and absorbencies (A260) were measured and the contents were calculated. Also the integrity of the oligonucleotides was confirmed by HPLC analysis. To prepare the siRNA duplexes, the single stranded oligonucleotides were mixed and allowed to anneal. The UV absorption (A260) for each siRNA duplex was measured and their value are as follows: I (0.28), II (0.54), III (0.31), and IV (0.45). To test for reproducibility, the melting profile study was done in duplicate.
The thermal melting profiles of the duplexes I, II, III and IV were recorded on Shimadzu UV-VIS 1601 with thermoelectrically temperature controlled through the Peltier device. The temperature was changed at the rate of 0.5° C./minute from 90° C. to 25° C. while the absorption recorded at 260 nm. The reverse experiment is also repeated. The “melting” process is a physical phenomenon. Therefore, the generated profile (90° to 25°) ought to be superimposed on the reverse ([…] to 90°).
Differential curves were used to determine the melting point (Tm) of the duplexes. The shape of the curve defined by the derivative of a curve (versus 1/T) was used to make a robust determination of Tm and other thermodynamic data. Shimadzu TMSPC-8 and its associated software performed the needed calculations.

[2] = tested on: ribonucleases present in rat plasma; assay: Stability of siRNA in rat plasma (PAGE gel, densitometry); assay type: in vitro ADME; conditions: for level of degradation on PAGE gel after treatment with plasma: fresh rat plasma, 37° C., time points 0, 30, 60 and 20 min; for Stability Ranking: rat plasma 37° C.
Method: At various time points (0, 30, 60 and 20 min), 50 μ*l of the mixture was taken out and immediately extracted by phenol:chloroform. SiRNAs were dried following precipitation by adding 2.5 volume of isopropanol alcohol and subsequent washing step with 70% ethanol. After dissolving in water and gel loading buffer the samples were analyzed on 20% polyacrylamide gel, containing 7 M urea and visualized by ethidium bromide staining and quantitated by densitometry.
The purpose of this experiment was to determine whether 2′-O-methyl modified ribonucleotides and the substitution of uridines with ribothymidines (5-methyluridine) provide for greater siRNA stability against rat plasma ribonucleases.
At various time points (0, 30, 60 and 20 min), 50 μl of the mixture was taken out and immediately extracted by phenol:chloroform. siRNAs were dried following precipitation by adding 2.5 volume of isopropanol alcohol and subsequent washing step with 70% ethanol. After resuspending in water and gel loading buffer the samples were analyzed gel electrophoresis on a 20% polyacrylamide gel, containing 7 M urea and subsequently visualized by ethidium bromide staining and quantified by densitometry.

interferon response = assay: Interferon response in vitro; assay type: cell-based
Method: Interferon responsiveness is a potential side-effect of tranfecting cells with siRNAs. Thus, a study was performed in vitro to assess whether various isoforms of the LC20 siRNA would elicit an interferon response. Both unmodified and modified of the 19-mer LC20 siRNA and 21-mer LC20 siRNA were tested.

I (WT): unmodified β-gal siRNA: CUACACAAAUCAGCGAUUU TT / TT GAUGUGUUUAGUCGCUAAA (sense CUACACAAAUCAGCGAUUUTT; antisense TTGAUGUGUUUAGUCGCUAAA; chemistry not fully specified; one strand is listed 3' to 5') [reference compound]
Avg. Tm from 1st Exp. [1]: 64.9 °C
Avg. Tm from 2nd Exp. [1]: 64.9 °C
Tm ([1]; Down profile): 65.6 °C
Tm ([1]; Up profile): 64.3 °C
level of degradation on PAGE gel after treatment with plasma [2]: begins to degrade almost immediately

II: β-gal siRNA, all uracils in both strands changed to ribothymidine (SEQ ID NO:1/2) (chain 1 CNACACAAANCAGCGANNNTT; chain 2 AAANCGCNGANNNGNGNAGTT; RNA at 1, 2, 3, 4, 5, 6, 7, 8, 9, 10, 11, 12, 13, 14, 15, 16, 17, 18, 19, other sugars, backbone and the base at N not given here; all uracils replaced by ribothymidine in both strands)
Avg. Tm from 1st Exp. [1]: 72.35 °C
Avg. Tm from 2nd Exp. [1]: 72.25 °C
Tm ([1]; Down profile): 72.8 °C
Tm ([1]; Up profile): 71.9 °C
melts at a temperature of [1]: about 72.3 °C
melting temperature higher than the wild type (duplex I) [1]: 7.4 °C
level of degradation on PAGE gel after treatment with plasma [2]: little to no degradation

III: β-gal siRNA, rT incorporated in the anti-sense strand only (SEQ ID NO:5/6) (chain 1 CNACACAAANCAGCGANNNTT; chain 2 AAANCGCNGANNNGNGNAGTT; RNA at 1, 2, 3, 4, 5, 6, 7, 8, 9, 10, 11, 12, 13, 14, 15, 16, 17, 18, 19, other sugars, backbone and the base at N not given here; ribothymidine replaces uracil in antisense strand only)
Avg. Tm from 1st Exp. [1]: 72.4 °C
Avg. Tm from 2nd Exp. [1]: 69.8 °C
Tm ([1]; Down profile): 72.9 °C
Tm ([1]; Up profile): 71.9 °C
melting temperature higher than the wild type (duplex I) [1]: approximately 4.9 °C

IV: β-gal siRNA, rT incorporated in the sense strand only (SEQ ID NO:3/4) (chain 1 CTACACAAATCAGCGATTTTT; chain 2 AAAUCGCUGAUUUGUGUAGTT; chain 1: RNA at 2, 10, 17, 18, 19, other sugars and backbone not given here; chain 2: RNA at 4, 8, 11, 12, 13, 15, 17, other sugars and backbone not given here; positions 1-19 ribonucleotides, further chemistry not fully specified)
Avg. Tm from 1st Exp. [1]: 67.8 °C
Avg. Tm from 2nd Exp. [1]: 67.8 °C
Tm ([1]; Down profile): 67.8 °C
Tm ([1]; Up profile): 67.8 °C
melts at a temperature of [1]: 67.8 °C
melting temperature higher than the wild type (duplex I) [1]: 2.9 °C
level of degradation on PAGE gel after treatment with plasma [2]: little to no degradation

LC20-19mer: No 3′ overhangs and unmodified: 5′-GGGUCGGAACCCAAGCUUA-3′ / 3′-CCCAGCCUUGGGUUCGAAU-p-5′ (siRNA; 5' phosphate on antisense, chemistry not fully specified; one strand is listed 3' to 5')
Stability Ranking ([2]; LC20 siRNAs (Table 3)): 4
interferon response (interferon response): did not elicit an interferon response

LC20-MD23: 5′-GGGT^rCGGAACCCAAGCT^r U^MeOA^MeOdTdT-3′ / 3′-CCCAGCCUUGGGUUCGAAU-p-5′
Stability Ranking ([2]; LC20 siRNAs (Table 3)): 3

LC20-WT: Unmodified: 5′-GGGUCGGAACCCAAGCUUA dTdT-3′ / 3′-dAdT CCCAGCCUUGGGUUCGAAU-p-5′
Stability Ranking ([2]; LC13 siRNAs (Table 4)): 4
Stability Ranking ([2]; LC20 siRNAs (Table 3)): 4
interferon response (interferon response): did not elicit an interferon response

Reference: US20060122137A1, “5'-methylpyrimidine and 2'-O-methyl ribonucleotide modified double-stranded ribonucleic acid molecules” (Nastech Pharmaceutical Company Inc., priority 2003, published 2006)
